The source of these data is patent US7402602B2 (priority 2001, dated 2008).

As usually defined, the melting point is the temperature, or range, at which the solid turns liquid.

`CCCC(CCC)c1nc(-c2ccc(F)cc2)c[nH]1` returned a melting point of 217.5 °C.
In turn, `CC(C)Cc1ccc(Cc2nc(-c3ccc(-c4ccccc4)cc3)c[nH]2)cc1` [Example 1, 4-(1,1′-biphenyl-4-yl)-2-(4-isobutylbenzyl)-1H-imidazole] had a melting point of 160 to 161 °C.
With `CCCCCCc1nc(-c2ccc(CC(C)C)cc2)c[nH]1` [Example 2, 2-hexyl-4-(4-isobutylphenyl)-1H-imidazole], the melting point lay within 89 to 90 °C.
The molecule `c1ccc(CCCc2nc(-c3ccccc3)c[nH]2)cc1` [Example 3, 4-phenyl-2-(3-phenylpropyl)-1H-imidazole] yielded a melting point of 106 to 108 °C.
As for `CCCCCC(CCCCC)c1nc(-c2ccccc2)c[nH]1` [Example 4, 2-(1-pentylhexyl)-4-phenyl-1H-imidazole], the figure is 111.2 °C.
Regarding `CCCCCC(CCCCC)c1nc(-c2ccc(F)cc2)c[nH]1` [Example 5, 4-(4-fluorophenyl)-2-(1-pentylhexyl)-1H-imidazole], the melting point was 134.6 °C.
To `Fc1ccc(-c2c[nH]c(CC3CCCCC3)n2)cc1` [Example 6, 2-(cyclohexylmethyl)-4-(4-fluorophenyl)1H-imidazole] belongs 68 to 70 °C; to `CCCCCC(CCCCC)c1nc(-c2ccc(-c3ccccc3)cc2)c[nH]1` [Example 7, 4-(1,1′-biphenyl-4-yl)-2-(1-pentylhexyl)-1H-imidazole], 173.6 °C; to `CCCC(CCC)c1nc(-c2ccc(C(C)(C)C)cc2)c[nH]1` [Example 8, 4-(4-tert-butylphenyl)-2-(1-propylbutyl)-1H-imidazole], 200 to 202 °C.
As to `CCCC(CCC)c1nc(-c2ccc(-c3ccc(Br)cc3)cc2)c[nH]1` [Example 10, 4-(4′-bromo-1,1′-biphenyl-4-yl)-2-(1-propylbutyl)-1H-imidazole], the melting point came to 182.8 °C.
As for `c1ccc(-c2ccc(-c3c[nH]c(CCC4CCCCC4)n3)cc2)cc1` [Example 11, 4-(1,1′-biphenyl-4-yl)-2-(2-cyclohexylethyl)-1H-imidazole], the figure is 104.9 °C; as for `CCCCCCc1nc(-c2ccc(-c3ccccc3)cc2)c[nH]1` [Example 12, 4-(1,1′-biphenyl-4-yl)-2-hexyl-1H-imidazole], 104.8 °C.
For `CC(C)Cc1ccc(C(C)c2nc(-c3ccc(-c4ccccc4)cc3)c[nH]2)cc1` (stereo not drawn) [Example 13, 4-(1,1′-biphenyl-4-yl)-2-[1-(4-isobutylphenyl)ethyl]-1H-imidazole], the melting point was 172.7 °C.
Take `CC(C)Cc1ccc(C(C)c2nc(-c3ccc(F)cc3)c[nH]2)cc1` (stereo not drawn) [Example 14, 4-(4-fluorophenyl)-2-[1-(4-isobutylphenyl)ethyl]-1H-imidazole]: the melting point is 116 °C.
As to `CC(c1ccccc1)c1nc(-c2ccc(-c3ccccc3)cc2)c[nH]1` (stereo not drawn) [Example 15, 4-(1,1′-biphenyl-4-yl)-2-(1-phenylethyl)-1H-imidazole], the melting point is 165 to 166 °C.
Molecule `CCCC(CCC)c1nc(-c2ccc(-c3ccccc3)cc2)c[nH]1` [Example 16, 4-(1,1′-biphenyl-4-yl)-2-(1-propylbutyl)-1H-imidazole] returned a melting point of 197 to 198 °C.
On to `c1ccc(-c2ccc(-c3c[nH]c(CC4CCCCC4)n3)cc2)cc1` [Example 17, 4-(1,1′-biphenyl-4-yl)-2-(cyclohexylmethyl)-1H-imidazole], for which the melting point lay in the range of 104 to 105 °C.
`c1ccc(-c2ccc(-c3c[nH]c(CCCC4CCCCC4)n3)cc2)cc1` [Example 18, 4-(1,1′-biphenyl-4-yl)-2-(3-cyclohexylpropyl)-1H-imidazole]: the melting point was 118 to 119 °C.
